Results reported in patent publication US12304912B2, “Fused bicyclic RAF inhibitors and methods for use thereof” (Jazz Pharmaceuticals Ireland Limited, priority 2020, dated 2025).
Where two headings read alike, the source gives them in different places.

Assays:
[1] = Microsomal stability assay, human liver microsomes (HLM); type: in vitro ADME; conditions: 0.5 mg/mL protein, 1 μM substrate, 37° C.
Procedure, shortened: (§1)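 Half-life and CLint come from the ln(% remaining)–time slope, with remaining compound quantified by LC-MS/MS after ice-cold solvent quench of timed samples. Incubations used 1 μM test compound and 0.5 mg·mL^−1 human or mouse liver microsomal protein at 37° C.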

[2] = Plasma protein binding assay, mouse plasma (mPPB); type: in vitro ADME; conditions: 5 μM, equilibrium dialysis 4 hours at 37° C.
Procedure, shortened: (§2)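 Equilibrium dialysis of 5 μM compound in previously frozen human or mouse plasma against phosphate buffer, 4 h at 37 °C. Both chambers quantified by LC-MS/MS; % free = (1−((PC−PF)/PC))×100.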

WiDr cells = experiment: WiDr CellTiter-Glo 3D cell proliferation assay; type: cell-based; conditions: Homo sapiens, read-out: 3D WiDr pGI50 (converted)
[3] = Plasma protein binding assay, human plasma (hPPB); type: in vitro ADME; conditions: 5 μM, equilibrium dialysis 4 hours at 37° C.
Procedure, shortened: as §2

[4] = test system: constitutive ERK phosphorylation in WiDr cells; experiment: WiDr AlphaLISA SureFire pERK1/2 cellular assay; type: cell-based, human; conditions: Homo sapiens, read-out: pERK WiDr (2 hr) Abs pIC50 (converted)
[5] = Microsomal stability assay, mouse liver microsomes (MLM); type: in vitro ADME; conditions: 0.5 mg/mL protein, 1 μM substrate, 37° C.
Procedure, shortened: as §1

[6] = test system: RAF dimers in HCT-116 cells; experiment: HCT-116 AlphaLISA SureFire pERK1/2 cellular assay (dimer); type: cell-based; conditions: Homo sapiens, HCT-116; HCT116 cells, dimer, 1 hr; read-out: pERK HCT116 dimer (1 hr) plC50 (converted)
Procedure, shortened: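 HCT-116 (KRAS G13D) cells, 30,000/well, pretreated 1 h with 1 μM Encorafenib to induce RAF dimers, washed, then dosed 1 h at 37° C with compound (10-point, top 10 μM, 1/2 log steps) in growth medium. pERK1/2 (T202/Y204) measured by AlphaLISA SureFire; absolute IC50 versus DMSO control.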

Row | Compound | microsomal CLint at 1 μM [1] [µL/min/mg] | mPPB (% free) [2] [% free] | GI50 (WiDr cells; WiDr cells, 3D proliferation) [µM] | hPPB (% free) [3] [% free] | IC50 ([4]; WiDr cells, 2 hr, Abs) [µM] | microsomal CLint at 1 μM [5] [µL/min/mg] | IC50 [6] [µM] | MLM (CLint) [5] [µL/min/mg] | GI50 (WiDr cells; WiDr) [µM] | IC50 ([4]; WiDr, 2 h) [µM]
1 | O=C1CCc2c(Oc3ccc4c(c3)CC(c3nc(C5CCOCC5)c[nH]3)CO4)ccnc2N1 (stereo not shown) [Compound 132, 5-[3-(4-tetrahydropyran-4-yl-1H-imidazol-2-yl)chroman-6-yl]oxy-3,4-dihydro-1H-1,8-naphthyridin-2-one] | 20.7 | 10.1 | 1.15 | 2.6 | 0.832 | 9.3 | 0.427 |  |  | 
2 | O=C1CCc2c(Oc3ccc4c(c3)CC(c3nc5ccncc5[nH]3)CO4)ccnc2N1 (stereo not shown) [Compound 134, 5-[3-(3H-imidazo[4,5-c]pyridin-2-yl)chroman-6-yl]oxy-3,4-dihydro-1H-1,8-naphthyridin-2-one] | 13.6 | 9.5 | 25.7 | 6.1 | 6.17 | 72.4 | 0.0324 |  |  | 
3 | O=C(Nc1cc(Oc2ccc3c(c2)CC(c2nc(-c4ccccc4)c[nH]2)CO3)ccn1)C1CC1(F)F (stereo not shown) [Compound 137, 2,2-difluoro-N-[4-[3-(4-phenyl-1H-imidazol-2-yl)chroman-6-yl]oxy-2-pyridyl]cyclopropanecarboxamide] | 32.6 | <0.1 | 0.126 | 0.1 | 0.0741 |  | 0.0282 | 277 |  | 
4 | c1ccc(-c2c[nH]c(C3COc4ccc(Oc5ccnc(Nc6ccccn6)c5)cc4C3)n2)cc1 (stereo not shown) [Compound 140, 4-[3-(4-phenyl-1H-imidazol-2-yl)chroman-6-yl]oxy-N-(2-pyridyl)pyridin-2-amine] | 48.7 | 0.2 | 1.91 | <0.1 | 1.26 | 81.1 | 2.04 |  |  | 
5 | Cc1c[nH]c(-c2cc(Oc3ccc4c(c3)CC(c3nc(-c5ccccc5)c[nH]3)CO4)ccn2)n1 (stereo not shown) [Compound 143, 2-(4-methyl-1H-imidazol-2-yl)-4-[3-(4-phenyl-1H-imidazol-2-yl)chroman-6-yl]oxy-pyridine] | 36.1 | <0.1 | 1.51 | <0.1 | 0.302 | 86.1 | 0.575 |  |  | 
6 | O=C(Cn1ccnc1)Nc1cc(Oc2ccc3c(c2)CC(c2nc(-c4ccccc4)c[nH]2)CO3)ccn1 (stereo not shown) [Compound 144] | 27.1 | 0.8 | 0.38 | 0.7 | 0.0955 | 29.3 | 0.0603 |  |  | 
7 | O=C(CN1CC[C@@H](O)C1)Nc1cc(Oc2ccc3c(c2)CC(c2nc(-c4ccccc4)c[nH]2)CO3)ccn1 (stereo partly shown) [Compound 145] | 57.2 | 0.53 | 6.31 | 0.4 | 0.331 | 147 | 0.178 |  |  | 
8 | CN1CCN(CC(=O)Nc2cc(Oc3ccc4c(c3)CC(c3nc(-c5ccccc5)c[nH]3)CO4)ccn2)CC1 (stereo not shown) [Compound 146, 2-(4-methylpiperazin-1-yl)-N-[4-[3-(4-phenyl-1H-imidazol-2-yl)chroman-6-yl]oxy-2-pyridyl]acetamide] | 33.4 | 0.7 | 0.813 | 1.5 | 0.398 | 89.7 | 0.17 |  |  | 
9 | CN1CCC(C(=O)Nc2cc(Oc3ccc4c(c3)CC(c3nc(-c5ccccc5)c[nH]3)CO4)ccn2)CC1 (stereo not shown) [Compound 147, 1-methyl-N-[4-[3-(4-phenyl-1H-imidazol-2-yl)chroman-6-yl]oxy-2-pyridyl]piperidine-4-carboxamide] | 10.4 | 0.8 | 1.38 | 0.5 | 0.871 | 102 | 0.437 |  |  | 
10 | O=C(Nc1nccc(Oc2ccc3c(c2)CC(c2nc(-c4ccccc4)c[nH]2)CO3)n1)C1CC1 (stereo not shown) [Compound 148, N-[4-[3-(4-phenyl-1H-imidazol-2-yl)chroman-6-yl]oxypyrimidin-2-yl]cyclopropanecarboxamide] | 132 | 0.4 | 1.2 | 0.9 | 0.871 | 211 | 0.457 |  |  | 
11 | O=C(CN1CCOCC1)Nc1cc(Oc2ccc3c(c2)CC(c2nc(-c4ccccc4)c[nH]2)CO3)ccn1 (stereo not shown) [Compound 149] | 63.7 | 0.14 | 2.24 | 0.25 | 0.933 | 231 | 0.363 |  |  | 
12 | O=C(Nc1cc(Oc2ccc3c(c2)CC(c2nc(-c4ccccc4)c[nH]2)CO3)ncn1)C1CC1 (stereo not shown) [Compound 151, N-[6-[3-(4-phenyl-1H-imidazol-2-yl)chroman-6-yl]oxypyrimidin-4-yl]cyclopropanecarboxamide] | 18.3 | <0.1 |  | 0.21 |  | 161 | 0.204 |  | 1.15 | 0.224
13 | O=C(CN1CCCC1)Nc1cc(Oc2ccc3c(c2)CC(c2nc(-c4ccccc4)c[nH]2)CO3)ccn1 (stereo not shown) [Compound 152] | 29 | 0.47 | 5.62 | 0.48 | 0.219 | 259 | 0.275 |  |  | 
14 | O=C(CN1CC(O)C1)Nc1cc(Oc2ccc3c(c2)CC(c2nc(-c4ccccc4)c[nH]2)CO3)ccn1 (stereo not shown) [Compound 153] | 19.2 | 0.6 | 5.62 | 0.39 | 0.288 | 92.9 | 0.126 |  |  | 
15 | O=C(Cn1cncn1)Nc1cc(Oc2ccc3c(c2)CC(c2nc(-c4ccccc4)c[nH]2)CO3)ccn1 (stereo not shown) [Compound 154] | 22.8 | 0.7 | 0.661 | 0.75 | 0.0331 | 95.2 | 0.038 |  |  | 
16 | O=C(Nc1cc(Oc2ccc3c(c2)CC(c2nc(-c4ccc(F)cc4)c[nH]2)CO3)ccn1)C1CC1 (stereo not shown) [Compound 155, N-[4-[3-[4-(4-fluorophenyl)-1H-imidazol-2-yl]chroman-6-yl]oxy-2-pyridyl]cyclopropanecarboxamide] | 28.9 | 0.1 | 0.631 | 0.1 | 0.102 |  | 0.0724 | 277 |  | 
17 | CC(=O)Nc1cc(Oc2ccc3c(c2)CC(c2nc(-c4ccccc4)c[nH]2)CO3)ccn1 (stereo not shown) [Compound 156, N-[4-[3-(4-phenyl-1H-imidazol-2-yl)chroman-6-yl]oxy-2-pyridyl]acetamide] | 30.3 | 0.4 | 0.269 | 0.5 | 0.132 | 152 | 0.0525 |  |  | 
18 | CC1CC1C(=O)Nc1cc(Oc2ccc3c(c2)CC(c2nc(-c4ccccc4)c[nH]2)CO3)ccn1 (stereo not shown) [Compound 157] | 35.7 | <0.1 | 0.661 | <0.1 | 0.275 |  | 0.174 | 277 |  | 
19 | O=C1CCc2c(Oc3ccc4c(c3)CN(c3nc5cc(C(F)(F)F)ccc5[nH]3)CC4)ccnc2N1 [Compound 160] | 2.7 | <0.1 | 2.09 | 0.3 | 0.219 | 4.5 | 0.347 |  |  | 
